# From patent US8604059B2, “Thioxanthene derivatives for the treatment of infectious diseases” (BKG Pharma APS, priority 2009, dated 2013)
# Where two headings read alike, the source gives them in different places.
# Experiments:
# [1] = Cytotoxic effect in uninfected MT4 cultures; format: cell-based; settings: human, uninfected MT4 cells; single agent; uninfected MT4
# Method: (§1) Compounds were examined for possible antiviral activity against strain IIIB of HIV-1 using MT4 cells as target cells. MT4 cells were incubated with virus (0.005 MOI) and growth medium containing the test dilutions of compound(s) for six days in parallel with virus-infected and uninfected control cultures without compound added. Expression of HIV in the cultures was indirectly quantified using the MTT assay as previously described. Compounds mediating less than 30% reduction of HIV expression were considered without biological activity. Compounds were tested in parallel for cytotoxic effect in uninfected MT4 cultures containing the test dilutions of compound as described above. Cultures for test of both antiviral activity and cytotoxic effect were set up in tripleduplicates, […] per culture in micro titre plates. A 30% inhibition of cell growth relative to control cultures was considered significant. The 50% inhibitory concentration was determined by interpolation from the plots of percent inhibition versus concentration of compound.
# (§2) CC50 is defined as the inhibitory concentration that reduces cellular growth or viability of uninfected cells by 50%.
# MT4 cells = assay: Cytotoxic effect in uninfected MT4 cultures; format: cell-based; settings: read-out: CC50 A + C3 (1 μM); AZT in presence of compound 3 at 1 μM
# Method: as §1, §2
# strain IIIB of HIV-1 = assay: Inhibition of HIV-1 replication in MT4 cells, MTT assay; format: cell-based; settings: Human immunodeficiency virus 1, IIIB
# Method: The enhancing effect of compound 3 on anti-viral agents was studied by checkerboard combination studies exposing HIV infected cells to 0-3 μM anti-viral agent in the absence or presence of compound 3 in concentrations from 0 to 6 μM. Each experiment was repeated in tripleduplicate. MIC values represent the mean values of two separate experiments.
# The HIV-1 strain HTLV-IIIB were propagated in H9 cells at 37° C., 5% CO2 using RPMI 1640 with 10% heat-inactivated foetal calf serum (FCS) and antibiotics (growth medium). Culture supernatant was filtered ([…]), aliquotted, and stored at −80° C. until use. The HIV-1 strain was obtained from NIH AIDS Research and Reference Program.
# as §1
# EC50 is defined as the effective concentration that inhibits 50% of viral production, 50% of viral infectivity, or 50% of the virus-induced cytopathic effect.
# [2] = system: E. coli MDR clinical isolates; assay: FIC index, synergy with antibiotics (Table 4a); format: cell-based; settings: 8 MDR E. coli, mean, compound at ¼ of MIC
# Method: (§3) The effect of the compounds was tested according to the methods described in WO2005/105145. In brief, cell growth was tested using the MIC susceptibility tests by use of the microdilution broth method in accordance to the NCCLS Guidelines (NCCLS Guidelines, Methods for Dilution Antimicrobial Susceptibility Tests for Bacteria That Grow Aerobically; Approved Standard, Sixth Edition, Volume 23; Number 2).
# (§4) The Fractional Inhibitory Concentration (FIC) index were calculated for each compound as described in WO2005/105145. Synergy was defined for Fractional Inhibitory Concentration (FIC) indices less than 0.5
# E. coli: 8 in vivo-selected multidrug resistant clinical isolates of E. coli. Resistant to tetracycline, beta-lactams, fluoroquinolones, chloramphenicol and aminoglycoside
# [3] = system: Multiresistant clinical isolates E. coli; assay: Maximal reversal of resistance and synergistic effect (Table 4c); format: cell-based; settings: E. coli multiresistant isolates
# Method: The maximal obtained reversal of resistance and synergistic effect was tested as previously described.
# Strains: Multiresistant clinical isolates E. coli, Ten strains in each group.
# [4] = system: S. aureus MRSA clinical isolates; assay: FIC index, synergy with antibiotics (Table 4a); format: cell-based, Staphylococcus aureus; settings: with Dicloxacillin; 8 MRSA; mean; compound at ¼ of MIC
# Method: as §3, §4
# Staphylococcus aureus: 8 (MRSA) in vivo-selected clinical isolates. Resistant to methicillin and beta-lactam antibiotics. Susceptible to teicoplanin chloramphenicol, fosfomycin, netilmicin and vancomycin.
# E. faecalis = assay: MIC, microdilution broth, multiresistant clinical isolates (Table 1A); format: cell-based; settings: Enterococcus faecalis; ten multiresistant clinical isolates; read-out: Median MIC E. faecalis
# Method: (§5) Cell growth was tested using the Minimal Inhibitory Concentration (MIC) susceptibility tests by use of the microdilution broth method in accordance to the NCCLS Guidelines (NCCLS Guidelines, Methods for Dilution Antimicrobial Susceptibility Tests for Bacteria That Grow Aerobically; Approved Standard, Sixth Edition, Volume 23; Number 2). The minimum inhibitory concentration (MIC), is defined as the lowest concentration of drug which inhibits growth of the test organism, in the sense that no visible growth is detected (total inhibition of growth). In example 2, MIC of the compounds used on fungal microorgansims was determined from the IC90 measurements according to NCCLS Guidelines.
# (§6) A log phase culture of bacteria was diluted with fresh pre-warmed Mueller-Hinton medium and adjusted to a defined OD at 600 nm in order to give a final concentration of 1×10^4-5 bacteria/ml medium. The bacterial culture was transferred to microtiter-plates and culture was added to each well. […] Trays were incubated at 37° C. by shaking in a robot analyzer, PowerWavex, software KC^4′ Kebo. Lab, Copenhagen, for 16 h and optical densities were measured at 600 nm during the incubation time in order to record growth curves. Wells containing bacterial culture without drug were used as controls to ensure correct inoculum size and bacterial growth during the incubation. Cultures were tested in order to detect contaminations. Each experiment was repeated in triplicate.
# (§7) Ten strains in each test group.
# E. coli = assay: as above; format: cell-based; settings: Escherichia coli; ten multiresistant clinical isolates; read-out: Median MIC E. coli
# Method: as §5, §6, §7
# S. aureus = assay: as above; format: cell-based; settings: Staphylococcus aureus; ten multiresistant clinical isolates; read-out: Median MIC S. aureus
# Method: as §5, §6, §7
# S. epidermidis = assay: as above; format: cell-based; settings: Staphylococcus epidermidis; ten multiresistant clinical isolates; read-out: Median MIC S. epidermidis
# Method: as §5, §6, §7
# E. faecium = assay: as above; format: cell-based; settings: Enterococcus faecium; ten multiresistant clinical isolates; read-out: Median MIC E. faecium
# Method: as §5, §6, §7
# [5] = system: E. faecalis MDR/VRE clinical isolates; assay: FIC index, synergy with antibiotics (Table 4a); format: cell-based, Enterococcus faecalis; settings: 8 MDR/VRE E. faecalis, mean, compound at ¼ of MIC
# Method: as §3, §4
# Enterococcus faecalis: 8 multidrug resistant in vivo-selected clinical isolates. […] Expressing change in the cell wall precursor target as a major resistance mechanism (VanA gene expression).
# Candida albicans = assay: Synergy with fluconazole, broth microdilution NCCLS M27-A (Table 10); format: cell-based
# Method: The isolates were subcultured for 24 h on Sabouraud glucose agar before susceptibility testing. Broth microdilution tests were performed according to NCCLS document M27-A (Ref: National Commitee for Clinical Laboratory Standards. (1997). Reference Method for Broth Dilution Antifungal Susceptibility Testing of Yeasts: Approved Standard M27-A. NCCLS, Wayne, Pa.) Microtitre plates were read spectrophotometrically at 530 nm, after mixing the wells by pipetting to resuspend yeast sediments. […] The Fractional Inhibitory Concentration (FIC) was calculated for the anti-infective agent alone and in combination with compound 3 and 4 (see table 4) as described above. Synergy was defined as a FIC index of <0.5.
# Streptococci = assay: MIC on multiresistant and susceptible clinical isolates (Table 1b); format: cell-based; settings: 8 multiresistant and 8 susceptible isolates
# Method: as §5
# (§8) A log phase culture of bacteria was diluted with fresh pre-warmed Mueller-Hinton medium and adjusted to a defined OD at 600 nm in order to give a final concentration of 1×10^4-5 bacteria/ml medium. The bacterial culture was transferred to microtiter-plates and culture was added to each well. Drug was added to the bacterial culture in the wells as two-fold dilution series of drug in order to give final concentrations ranging from 0.03 to 128 μg/ml. Trays were incubated at 37° C. by shaking in a robot analyzer, PowerWavex, software KC^4′ Kebo. Lab, Copenhagen, for 16 h and optical densities were measured at 600 nm during the incubation time in order to record growth curves. Wells containing bacterial culture without drug were used as controls to ensure correct inoculum size and bacterial growth during the incubation. Cultures were tested in order to detect contaminations. Each experiment was repeated in triplicate. MIC values represent the mean values of two separate triplicate experiments. Intra- and interassay variation was <5%.
# (§9) Clinically relevant human bacterial isolates of Staphylococci, Streptococci, Micrococci and Gram negative species was cultured and assayed as described above for susceptibility towards the compounds listed in table 1b.
# [6] = system: Staphylococci, Micrococci. Including MRSA; assay: as above; format: cell-based; settings: Micrococci incl. MRSA, 8 multiresistant and 8 susceptible isolates
# Method: as §5, §8, §9
# Gram negative sp. = assay: as above; format: cell-based; settings: 8 multiresistant and 8 susceptible isolates
# Method: as §5, §8, §9
# Enterococci sp. = assay: MIC on multiresistant and susceptible clinical isolates of Enterococci (Table 2); format: cell-based, Enterococcus faecalis and Enterococcus faecium; settings: 8 multiresistant (VanA, VanB, HLAR, BLR,CR) and 8 susceptible isolates
# Method: as §5
# as §8, with “Wells containing bacterial culture without drug were used as controls to ensure correct inoculum size and bacterial growth during the incubation. Cultures were tested in order to detect contaminations. Each experiment was repeated in triplicate. MIC values represent the mean values of two separate triplicate experiments. Intra- and interassay variation was <5%.” left out
# Candida species = assay: MIC on clinical isolates of Candida species, broth microdilution NCCLS M27-A (Table 3); format: cell-based; settings: Candida species incl. fluconazole resistant; MIC = 90% growth inhibition
# Method: The antibacterial effect of demethylated/dealkylated phenothiazine or thioxanthene compounds were studied by growth inhibition studies exposing cells to 0-32 μg/ml of drug. Each experiment was repeated in triplicate. MIC values represent the mean values of two separate triplicate experiments.
# 4 clinical isolates of Candida species (including 3 fluconazole resistant isolates) were subcultured for 24 h on Sabouraud glucose agar before susceptibility testing. Broth microdilution tests were performed according to NCCLS document M27-A (Ref: National Commitee for Clinical Laboratory Standards. (1997). Reference Method for Broth Dilution Antifungal Susceptibility Testing of Yeasts: Approved Standard M27-A. NCCLS, Wayne, Pa.). Microtitre plates were read spectrophotometrically at 530 nm, after mixing the wells by pipetting to resuspend yeast sediments. In this experiment, the MIC was defined as the lowest drug dilution resulting in 90% growth inhibition.
compound,measurement,setting,value
"Cc1cn([C@H]2C[C@H](N=[N+]=[N-])[C@@H](CO)O2)c(=O)[nH]c1=O [AZT, 3′-Azido-3′-deoxythymidine]",CC50 at 6 days,[1],> 3000 nM
same,CC50,MT4 cells,> 3000 nM
same,EC50,"strain IIIB of HIV-1; 144 h, single agent, MT4 cells, six days, read-out: EC50",50 nM
same,EC50,"strain IIIB of HIV-1; MT4, read-out: EC50 A + C3 (1 μM), AZT in presence of compound 3 at 1 μM",10 nM
"OCCN1CCN(CC/C=C2\c3ccccc3Sc3ccc(Cl)cc32)CC1 [Compound 2, trans-clopentixol]",FIC index,[2]; with Ampicillin,0.47
same,FIC index,[2]; with Ciprofloxacin,0.44
same,FIC index,[2]; with Gentamycin,0.44
same,FIC index,[2]; with Tetracycline,0.47
same,Maximal reversal of resistance: concentration of compound,[3],2.0 µg/mL
same,FIC index,[4],0.37
same,MIC,E. faecalis,1 µg/mL
same,MIC,E. coli,16 µg/mL
same,MIC,S. aureus,8 µg/mL
same,MIC,S. epidermidis,8 µg/mL
same,MIC,E. faecium,1 µg/mL
same,FIC index,[5]; with Ciprofloxacin,0.47
same,FIC index,[5]; with Dicloxacillin,0.47
OCCN1CCC(CC/C=C2\c3ccccc3Sc3ccc(Cl)cc32)CC1 [Compound 4],FIC index,[2]; with Ampicillin,0.44
same,FIC index,[2]; with Ciprofloxacin,0.47
same,FIC index,[2]; with Gentamycin,0.47
same,FIC index,[2]; with Tetracycline,0.44
same,MIC,"Candida albicans; Candida albicans, compound alone, read-out: MIC Compound",1.5 µg/mL
same,FIC index,Candida albicans; in combination with fluconazole,0.39
same,MIC Mean,Streptococci,1 µg/mL
same,MIC Mean,[6],1 µg/mL
same,MIC Mean,Gram negative sp.,3 µg/mL
same,MIC Mean (range),Enterococci sp.,0.5 (0.125-1.0) μ/ml
same,FIC index,[4],0.34
same,MIC Mean (range),Candida species,1.5 (0.125-2.0) μ/ml
same,FIC index,[5]; with Ciprofloxacin,0.34
same,FIC index,[5]; with Dicloxacillin,0.34
